What all share (type): cell-based
Assay [1] concerns the target T1, human TLR7 (Homo sapiens, UniProt Q9NYK1).
T1 construct: host or cells: HEK-Blue cells
T1 sequence (Q9NYK1 27-1049): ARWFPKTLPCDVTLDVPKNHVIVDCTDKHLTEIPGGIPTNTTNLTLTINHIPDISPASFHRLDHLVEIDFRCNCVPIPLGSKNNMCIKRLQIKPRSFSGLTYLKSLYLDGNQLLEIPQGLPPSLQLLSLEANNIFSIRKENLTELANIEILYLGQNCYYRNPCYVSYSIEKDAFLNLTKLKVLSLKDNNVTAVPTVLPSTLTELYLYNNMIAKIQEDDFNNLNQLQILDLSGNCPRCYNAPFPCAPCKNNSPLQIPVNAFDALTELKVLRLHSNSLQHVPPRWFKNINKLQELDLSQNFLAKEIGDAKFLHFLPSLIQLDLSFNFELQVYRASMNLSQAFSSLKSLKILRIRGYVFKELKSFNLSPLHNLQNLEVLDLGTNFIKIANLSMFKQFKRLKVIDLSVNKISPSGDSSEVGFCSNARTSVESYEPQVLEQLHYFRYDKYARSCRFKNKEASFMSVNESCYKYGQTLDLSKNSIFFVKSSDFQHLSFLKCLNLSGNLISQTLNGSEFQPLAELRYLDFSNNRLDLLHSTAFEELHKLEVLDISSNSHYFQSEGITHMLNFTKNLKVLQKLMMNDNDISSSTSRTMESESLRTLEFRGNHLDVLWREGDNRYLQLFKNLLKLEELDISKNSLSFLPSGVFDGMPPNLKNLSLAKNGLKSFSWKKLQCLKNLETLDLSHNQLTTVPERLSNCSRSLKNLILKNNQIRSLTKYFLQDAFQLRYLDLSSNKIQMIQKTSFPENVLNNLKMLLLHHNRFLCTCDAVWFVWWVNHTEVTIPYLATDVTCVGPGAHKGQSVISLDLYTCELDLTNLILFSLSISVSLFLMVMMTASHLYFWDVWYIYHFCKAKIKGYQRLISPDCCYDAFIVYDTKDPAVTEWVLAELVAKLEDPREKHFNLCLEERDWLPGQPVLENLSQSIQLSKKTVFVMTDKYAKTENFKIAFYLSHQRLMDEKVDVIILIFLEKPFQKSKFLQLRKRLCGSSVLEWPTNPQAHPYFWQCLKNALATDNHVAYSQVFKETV
Description: TLR7 inhibition reporter assay (HEK-Blue SEAP). The settings on record: HEK-Blue cells overexpressing human TLR7, stimulated with gardiquimod 7.5 μM, 22 hour incubation. A digest of the protocol:
(§1)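 Percent inhibition reflects SEAP reduction after 22 h at 37° C, relative to agonist-plus-DMSO and known-inhibitor controls. Compounds (0.05 nM to 50 μM) were added 30 min before agonist: TLR9 cells received ODN2006 5 nM, TLR8 cells R848 15.9 μM, TLR7 cells gardiquimod 7.5 μM; human receptor-expressing HEK-Blue reporter lines.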
In general terms: Reporter assays use an easily measured gene product as a stand-in for the process of interest.

Assay [2] addresses T2, human TLR9 (Homo sapiens, UniProt Q9NR96).
T2 construct: host or cells: HEK-Blue cells
T2 sequence (Q9NR96 26-1032): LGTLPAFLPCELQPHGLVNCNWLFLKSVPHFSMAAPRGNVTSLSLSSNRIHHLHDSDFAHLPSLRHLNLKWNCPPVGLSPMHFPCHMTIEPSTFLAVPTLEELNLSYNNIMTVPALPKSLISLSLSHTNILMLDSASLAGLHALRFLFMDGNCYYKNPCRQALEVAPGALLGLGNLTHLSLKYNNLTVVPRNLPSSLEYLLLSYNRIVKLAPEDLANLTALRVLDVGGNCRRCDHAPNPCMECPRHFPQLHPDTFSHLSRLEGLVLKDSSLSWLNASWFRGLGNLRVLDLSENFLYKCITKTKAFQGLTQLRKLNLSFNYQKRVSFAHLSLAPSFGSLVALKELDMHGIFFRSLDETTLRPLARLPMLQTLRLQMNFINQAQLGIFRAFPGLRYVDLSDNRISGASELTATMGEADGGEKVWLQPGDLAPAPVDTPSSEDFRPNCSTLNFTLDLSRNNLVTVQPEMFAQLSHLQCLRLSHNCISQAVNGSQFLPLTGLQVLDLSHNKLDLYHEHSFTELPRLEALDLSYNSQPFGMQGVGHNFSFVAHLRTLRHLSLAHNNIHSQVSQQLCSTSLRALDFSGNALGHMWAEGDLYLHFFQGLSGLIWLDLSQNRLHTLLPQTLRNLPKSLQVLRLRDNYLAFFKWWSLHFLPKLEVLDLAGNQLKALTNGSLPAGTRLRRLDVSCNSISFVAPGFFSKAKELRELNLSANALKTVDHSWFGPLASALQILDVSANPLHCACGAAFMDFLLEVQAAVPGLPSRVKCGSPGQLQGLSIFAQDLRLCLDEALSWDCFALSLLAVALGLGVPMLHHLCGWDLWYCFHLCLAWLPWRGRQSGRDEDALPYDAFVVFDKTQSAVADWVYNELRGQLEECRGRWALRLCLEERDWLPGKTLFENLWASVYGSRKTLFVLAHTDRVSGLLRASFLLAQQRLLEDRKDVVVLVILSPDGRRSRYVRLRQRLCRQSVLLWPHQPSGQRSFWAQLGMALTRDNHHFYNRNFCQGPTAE
Put plainly: TLR9 inhibition reporter assay (HEK-Blue SEAP). The following applies: HEK-Blue cells overexpressing human TLR9, stimulated with ODN2006 5 nM, 22 hour incubation. A digest of the protocol:
as §1

Assay [3] addresses T3, human TLR8 (Homo sapiens, UniProt Q9NR97).
T3 construct: host or cells: HEK-Blue cells
T3 sequence (Q9NR97 27-1041): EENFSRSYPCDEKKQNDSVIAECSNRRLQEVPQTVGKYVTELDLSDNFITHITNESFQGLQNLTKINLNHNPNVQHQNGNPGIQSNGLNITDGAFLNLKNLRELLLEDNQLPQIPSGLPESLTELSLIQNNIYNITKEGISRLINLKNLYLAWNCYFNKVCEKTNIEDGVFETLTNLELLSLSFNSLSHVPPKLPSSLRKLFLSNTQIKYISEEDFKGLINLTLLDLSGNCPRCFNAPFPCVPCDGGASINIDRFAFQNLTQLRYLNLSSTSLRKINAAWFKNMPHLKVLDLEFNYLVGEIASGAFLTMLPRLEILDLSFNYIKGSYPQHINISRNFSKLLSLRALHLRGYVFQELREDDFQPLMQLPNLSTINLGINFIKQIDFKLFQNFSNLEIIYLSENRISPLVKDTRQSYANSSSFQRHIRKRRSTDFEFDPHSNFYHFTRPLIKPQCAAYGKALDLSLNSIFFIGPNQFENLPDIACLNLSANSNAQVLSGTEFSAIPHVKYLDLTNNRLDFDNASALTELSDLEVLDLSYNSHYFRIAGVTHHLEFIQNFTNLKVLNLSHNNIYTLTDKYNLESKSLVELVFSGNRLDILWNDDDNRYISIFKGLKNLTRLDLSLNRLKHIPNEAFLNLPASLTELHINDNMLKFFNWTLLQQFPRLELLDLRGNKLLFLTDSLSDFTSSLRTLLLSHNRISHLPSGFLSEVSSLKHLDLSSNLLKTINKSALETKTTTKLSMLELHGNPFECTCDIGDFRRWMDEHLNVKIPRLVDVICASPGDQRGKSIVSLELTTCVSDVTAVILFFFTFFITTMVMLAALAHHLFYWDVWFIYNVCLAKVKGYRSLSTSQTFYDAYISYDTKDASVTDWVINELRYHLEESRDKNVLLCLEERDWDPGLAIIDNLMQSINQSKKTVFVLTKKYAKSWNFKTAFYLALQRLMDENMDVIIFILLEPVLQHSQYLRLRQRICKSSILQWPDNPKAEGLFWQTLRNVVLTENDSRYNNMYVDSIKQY
Description: TLR8 inhibition reporter assay (HEK-Blue SEAP). The settings on record: HEK-Blue cells overexpressing human TLR8, stimulated with R848 15.9 μM, 22 hour incubation. A digest of the protocol: as §1

Each structure is given as a SMILES string.

What is called IC50 is the midpoint of a concentration-inhibition curve. Read a high IC50 as weaker potency in that assay. With `Cc1cc2c(CC3CCNCC3)n[nH]c2cc1-c1cc(C)c2ncnn2c1` [Example 10, 8-methyl-6-(5-methyl-3-(piperidin-4-ylmethyl)-1H-indazol-6-yl)-[1,2,4]triazolo[1,5-a]pyridine], the 50% inhibitory concentration (IC50) was 68.9 nM in assay [1], 1010 nM in assay [2] and 3.8 nM in assay [3].

In the case of `COc1cc(-c2ccc3c(C4CCNCC4)c[nH]c3c2)cn2ncnc12` [Example 11, 8-methoxy-6-(3-(piperidin-4-yl)-1H-indol-6-yl)-[1,2,4]triazolo[1,5-a]pyridine], the values for the 50% inhibitory concentration (IC50) in assay [1], in assay [2] and in assay [3] were 64.4 nM, 363 nM and 245 nM, respectively.

As for `Cc1cc(-c2ccc3c(C4CCNCC4)c[nH]c3c2)cn2ncnc12` [Example 12, 8-methyl-6-(3-(piperidin-4-yl)-1H-indol-6-yl)-[1,2,4]triazolo[1,5-a]pyridine], the IC50 in assay [1] is 16.9 nM; in assay [2] it was 192 nM; in assay [3], 31.2 nM.

For `Cc1cc(-c2ccc3c(CCNC4CCNCC4)c[nH]c3c2)cn2ncnc12` [Example 13, N-(2-(6-(8-methyl-[1,2,4]triazolo[1,5-a]pyridin-6-yl)-1H-indol-3-yl)ethyl)piperidin-4-amine], the 50% inhibitory concentration (IC50) came out at 1690 nM in assay [1], 605 nM in assay [2] and 269 nM in assay [3].

As to `Cc1cc(-c2cc(C)c3ncnn3c2)cc2[nH]cc(C3CCNCC3)c12` [Example 16, 8-methyl-6-(4-methyl-3-(piperidin-4-yl)-1H-indol-6-yl)-[1,2,4]triazolo[1,5-a]pyridine], the IC50 in assay [1] turned out to be 3.3 nM; in assay [2], 1420 nM; in assay [3], 35.2 nM.

As for `Cc1cc(-c2ccc3c(C4CCNCC4)n[nH]c3c2)cn2ncnc12` [Example 17, 8-methyl-6-(3-(piperidin-4-yl)-1H-indazol-6-yl)-[1,2,4]triazolo[1,5-a]pyridine], the IC50 in assay [1] was 388 nM; in assay [2], 3190 nM; in assay [3], 328 nM.

Take `Cc1cc2c(C3CCNCC3)n[nH]c2cc1-c1cc(C)c2ncnn2c1` [Example 18, 8-methyl-6-(5-methyl-3-(piperidin-4-yl)-1H-indazol-6-yl)-[1,2,4]triazolo[1,5-a]pyridine]: the values for the IC50 in assay [1], in assay [2] and in assay [3] were 12.9 nM, 1500 nM and 3.3 nM, respectively.

`COc1cc2c(C3CCNCC3)n[nH]c2cc1-c1cc(C)c2ncnn2c1` [Example 19, 6-(5-methoxy-3-(piperidin-4-yl)-1H-indazol-6-yl)-8-methyl-[1,2,4]triazolo[1,5-a]pyridine]: the results for the IC50 in assay [1], in assay [2] and in assay [3] were 31.8 nM, 1780 nM and 11.2 nM, respectively.

As to `Cc1cc2c(C3CCN(C(=O)CN(C)C)CC3)n[nH]c2cc1-c1cc(C)c2ncnn2c1` [Example 20, 2-(dimethylamino)-1-(4-(5-methyl-6-(8-methyl-[1,2,4]triazolo[1,5-a]pyridin-6-yl)-1H-indazol-3-yl)piperidin-1-yl)ethan-1-one], the IC50 is 24.6 nM in assay [1], 4420 nM in assay [2] and 3.8 nM in assay [3].

Turning to `Cc1cc2c(C3CCN(C4CCOCC4)CC3)n[nH]c2cc1-c1cc(C)c2ncnn2c1` [Example 21, 8-methyl-6-(5-methyl-3-(1-(tetrahydro-2H-pyran-4-yl)piperidin-4-yl)-1H-indazol-6-yl)-[1,2,4]triazolo[1,5-a]pyridine], the 50% inhibitory concentration (IC50) in assay [1] was 26.2 nM; in assay [2] it was 4540 nM; in assay [3], 0.7 nM.

Take `CCCN1CCC(c2n[nH]c3cc(-c4cc(C)c5ncnn5c4)c(C)cc23)CC1` [Example 22, 8-methyl-6-(5-methyl-3-(1-propylpiperidin-4-yl)-1H-indazol-6-yl)-[1,2,4]triazolo[1,5-a]pyridine]: the IC50 in assay [1] stood at 17.7 nM; in assay [2], 3130 nM; in assay [3] it was 0.8 nM.

Regarding `Cc1cc2c(C3CCN(CC(=O)N(C)C)CC3)n[nH]c2cc1-c1cc(C)c2ncnn2c1` [Example 23, N,N-dimethyl-2-(4-(5-methyl-6-(8-methyl-[1,2,4]triazolo[1,5-a]pyridin-6-yl)-1H-indazol-3-yl)piperidin-1-yl)acetamide], the half-inhibitory concentration (IC50) worked out at 43.4 nM in assay [1], 6630 nM in assay [2] and 2.9 nM in assay [3].

For the compound `Cc1cc2c(C3CCCNC3)n[nH]c2cc1-c1cc(C)c2ncnn2c1` (stereo not drawn) [Example 24, 8-methyl-6-(5-methyl-3-(piperidin-3-yl)-1H-indazol-6-yl)-[1,2,4]triazolo[1,5-a]pyridine], the concentration for half-maximal inhibition (IC50) in assay [1] came to 15.8 nM; in assay [2], 862 nM; in assay [3], 1.1 nM.

As to `Cc1cc2c(C3CCNCC3)n[nH]c2cc1-c1cc(C)c(=O)n(C)c1` [Example 25, 1,3-dimethyl-5-(5-methyl-3-(piperidin-4-yl)-1H-indazol-6-yl)pyridin-2(1H)-one], the IC50 in assay [1] was 263 nM; in assay [2], 2240 nM; in assay [3], 10.4 nM.
